# Reference: PubChem BioAssay (NCI)
#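 Grown in 96-well plates, cells were treated for 48 hours with each compound at five concentrations. Insufficient inhibition: endpoint recorded as highest concentration tested. The concentration for full growth arrest is given as TGI.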
# Experiments:
# Experiment in all cases: NCI anticancer screen, dose series, 48 h
# CAKI-1 renal = test system: CAKI-1 renal
# KM12 colon = test system: KM12 colon
# NCI-H460 lung = test system: NCI-H460 lung
# LOX IMVI melanoma = test system: LOX IMVI melanoma
# LXFL 529 NSCLC = test system: LXFL 529 NSCLC
# RPMI-8226 leukemia = test system: RPMI-8226 leukemia
# U251 CNS = test system: U251 CNS
# 786-0 renal = test system: 786-0 renal
# A498 renal = test system: A498 renal
# HOP-92 NSCLC = test system: HOP-92 NSCLC
# SF-539 CNS = test system: SF-539 CNS
# HCT-116 colon = test system: HCT-116 colon
# SNB-75 CNS = test system: SNB-75 CNS
# EKVX NSCLC = test system: EKVX NSCLC
# HCC-2998 colon = test system: HCC-2998 colon
# K-562 leukemia = test system: K-562 leukemia
# SNB-19 CNS = test system: SNB-19 CNS
# SF-295 CNS = test system: SF-295 CNS
# OVCAR-5 ovarian = test system: OVCAR-5 ovarian
# OVCAR-8 ovarian = test system: OVCAR-8 ovarian
# OVCAR-4 ovarian = test system: OVCAR-4 ovarian
# MALME-3M melanoma = test system: MALME-3M melanoma
# XF 498 CNS = test system: XF 498 CNS
# NCI-H226 lung = test system: NCI-H226 lung
# OVCAR-3 ovarian = test system: OVCAR-3 ovarian
# SK-MEL-28 melanoma = test system: SK-MEL-28 melanoma
# A549 NSCLC = test system: A549 NSCLC
# UO-31 renal = test system: UO-31 renal
# SK-MEL-5 melanoma = test system: SK-MEL-5 melanoma
# UACC-257 melanoma = test system: UACC-257 melanoma
# NCI-H522 lung = test system: NCI-H522 lung
# DMS 114 small cell lung = test system: DMS 114 small cell lung
# RXF-631 renal = test system: RXF-631 renal
# DLD-1 colon = test system: DLD-1 colon
# SR leukemia = test system: SR leukemia
# COLO 205 colon = test system: COLO 205 colon
# HCT-15 colon = test system: HCT-15 colon
# DMS 273 small cell lung = test system: DMS 273 small cell lung
# M19-MEL melanoma = test system: M19-MEL melanoma
# HT29 colon = test system: HT29 colon
# HL-60(TB) leukemia = test system: HL-60(TB) leukemia
# SF-268 CNS = test system: SF-268 CNS
# HOP-62 NSCLC = test system: HOP-62 NSCLC
# UACC-62 melanoma = test system: UACC-62 melanoma
# SN12C renal = test system: SN12C renal
# ACHN renal = test system: ACHN renal
# TK-10 renal = test system: TK-10 renal
# KM20L2 colon = test system: KM20L2 colon
# CCRF-CEM leukemia = test system: CCRF-CEM leukemia
# SW-620 colon = test system: SW-620 colon
# SK-OV-3 ovarian = test system: SK-OV-3 ovarian
# NCI-H23 lung = test system: NCI-H23 lung
# SK-MEL-2 melanoma = test system: SK-MEL-2 melanoma
# M14 melanoma = test system: M14 melanoma
# HOP-18 NSCLC = test system: HOP-18 NSCLC
# IGROV1 ovarian = test system: IGROV1 ovarian
# RXF 393 renal = test system: RXF 393 renal
# SNB-78 CNS = test system: SNB-78 CNS
compound,measurement,setting,value
CCC1(O)C(=O)OCc2c1cc1n(c2=O)Cc2cc3ccc(CO)cc3nc2-1 (stereo not given),TGI,CAKI-1 renal,23.5 µM
same,TGI,KM12 colon,> 100 µM
same,TGI,NCI-H460 lung,22.5 µM
same,TGI,LOX IMVI melanoma,12.5 µM
same,TGI,LXFL 529 NSCLC,> 100 µM
same,TGI,RPMI-8226 leukemia,> 37.3 µM
same,TGI,U251 CNS,5.04 µM
same,TGI,786-0 renal,7.51 µM
same,TGI,A498 renal,24.5 µM
same,TGI,HOP-92 NSCLC,> 87.3 µM
same,TGI,SF-539 CNS,4.51 µM
same,TGI,HCT-116 colon,31.1 µM
same,TGI,SNB-75 CNS,9.77 µM
same,TGI,EKVX NSCLC,> 100 µM
same,TGI,HCC-2998 colon,> 80.2 µM
same,TGI,K-562 leukemia,> 100 µM
same,TGI,SNB-19 CNS,> 100 µM
same,TGI,SF-295 CNS,> 79.3 µM
same,TGI,OVCAR-5 ovarian,78.5 µM
same,TGI,OVCAR-8 ovarian,> 41.3 µM
same,TGI,OVCAR-4 ovarian,> 100 µM
same,TGI,MALME-3M melanoma,59.9 µM
same,TGI,XF 498 CNS,16.8 µM
same,TGI,NCI-H226 lung,6.58 µM
same,TGI,OVCAR-3 ovarian,24.4 µM
same,TGI,SK-MEL-28 melanoma,> 100 µM
same,TGI,A549 NSCLC,> 100 µM
same,TGI,UO-31 renal,17 µM
same,TGI,SK-MEL-5 melanoma,11.3 µM
same,TGI,UACC-257 melanoma,> 100 µM
same,TGI,NCI-H522 lung,26.8 µM
same,TGI,DMS 114 small cell lung,> 100 µM
same,TGI,RXF-631 renal,> 100 µM
same,TGI,DLD-1 colon,> 100 µM
same,TGI,SR leukemia,0.298 µM
same,TGI,COLO 205 colon,52.3 µM
same,TGI,HCT-15 colon,> 100 µM
same,TGI,DMS 273 small cell lung,11.1 µM
same,TGI,M19-MEL melanoma,54 µM
same,TGI,HT29 colon,> 81.4 µM
same,TGI,HL-60(TB) leukemia,> 27 µM
same,TGI,SF-268 CNS,> 100 µM
same,TGI,HOP-62 NSCLC,2.56 µM
same,TGI,UACC-62 melanoma,7.34 µM
same,TGI,SN12C renal,> 28.8 µM
same,TGI,ACHN renal,11 µM
same,TGI,TK-10 renal,> 100 µM
same,TGI,KM20L2 colon,> 69.9 µM
same,TGI,CCRF-CEM leukemia,0.987 µM
same,TGI,SW-620 colon,> 100 µM
same,TGI,SK-OV-3 ovarian,> 100 µM
same,TGI,NCI-H23 lung,10.2 µM
same,TGI,SK-MEL-2 melanoma,64.5 µM
same,TGI,M14 melanoma,33.1 µM
same,TGI,HOP-18 NSCLC,> 93.9 µM
same,TGI,IGROV1 ovarian,> 77.4 µM
same,TGI,RXF 393 renal,> 44 µM
NC(=O)n1ncc(Cl)c(Cl)c1=O,TGI,CAKI-1 renal,> 100 µM
same,TGI,KM12 colon,> 100 µM
same,TGI,NCI-H460 lung,> 100 µM
same,TGI,LXFL 529 NSCLC,> 100 µM
same,TGI,U251 CNS,> 100 µM
same,TGI,786-0 renal,> 100 µM
same,TGI,A498 renal,> 100 µM
same,TGI,HOP-92 NSCLC,> 100 µM
same,TGI,SF-539 CNS,> 100 µM
same,TGI,HCT-116 colon,> 100 µM
same,TGI,SNB-75 CNS,> 100 µM
same,TGI,EKVX NSCLC,> 100 µM
same,TGI,K-562 leukemia,> 100 µM
same,TGI,SNB-19 CNS,> 100 µM
same,TGI,SF-295 CNS,> 100 µM
same,TGI,OVCAR-5 ovarian,> 100 µM
same,TGI,OVCAR-8 ovarian,> 100 µM
same,TGI,OVCAR-4 ovarian,> 100 µM
same,TGI,MALME-3M melanoma,> 100 µM
same,TGI,XF 498 CNS,> 100 µM
same,TGI,NCI-H226 lung,> 100 µM
same,TGI,OVCAR-3 ovarian,> 100 µM
same,TGI,SK-MEL-28 melanoma,> 100 µM
same,TGI,A549 NSCLC,> 100 µM
same,TGI,UO-31 renal,> 100 µM
same,TGI,SNB-78 CNS,> 100 µM
same,TGI,SK-MEL-5 melanoma,> 100 µM
same,TGI,UACC-257 melanoma,> 100 µM
same,TGI,NCI-H522 lung,> 100 µM
same,TGI,DMS 114 small cell lung,> 100 µM
same,TGI,RXF-631 renal,> 100 µM
same,TGI,DLD-1 colon,> 100 µM
same,TGI,COLO 205 colon,> 100 µM
same,TGI,HCT-15 colon,> 100 µM
same,TGI,DMS 273 small cell lung,> 100 µM
same,TGI,M19-MEL melanoma,> 100 µM
same,TGI,HT29 colon,> 100 µM
same,TGI,HL-60(TB) leukemia,> 100 µM
same,TGI,SF-268 CNS,> 100 µM
same,TGI,HOP-62 NSCLC,> 100 µM
same,TGI,UACC-62 melanoma,> 100 µM
same,TGI,SN12C renal,> 100 µM
same,TGI,ACHN renal,> 100 µM
same,TGI,TK-10 renal,> 100 µM
same,TGI,KM20L2 colon,> 100 µM
same,TGI,CCRF-CEM leukemia,> 100 µM
same,TGI,SW-620 colon,> 100 µM
same,TGI,SK-OV-3 ovarian,> 100 µM
same,TGI,NCI-H23 lung,> 100 µM
same,TGI,SK-MEL-2 melanoma,> 100 µM
same,TGI,M14 melanoma,> 100 µM
same,TGI,HOP-18 NSCLC,> 100 µM
same,TGI,IGROV1 ovarian,> 100 µM
